Results reported in patent US4988517A, “Method and composition for inhibiting colon carcinogenesis” (American Health Foundation, priority 1988, dated 1991).

What was measured:
[1] = tested on: selenium-dependent glutathione peroxidase; assay: Selenium-dependent glutathione peroxidase activity in tissues of rats fed the diets; format: in vivo, male F344 rats
Protocol: (§1) Body weights were recorded weekly until the animals reach 16 wk of age and then every 4 wk. Six vehicle-treated animals randomly chosen from each dietary group while they were consuming experimental and control diets were used for tissue and blood plasma glutathione peroxidase analysis.
Biochemical Determination. For the determination of tissue and blood plasma glutathione peroxidase activity, 6 vehicle-treated animals from each dietary group, while the animals were on experimental and control diets, were used. Before sacrificing the animals, blood was obtained under ether anesthesia by cardiac puncture with a syringe. They were then decapitated,and liver, kidneys, small intestine, and colon were rapidly removed. The liver was perfused with ice-cold normal saline. The small intestine and colon were slit open longitudinally and freed from all the contents, and the mucosa was scraped with a microscope glass slide. The liver and kidneys were trimmed free of connective tissue, minced with scissors, and homogenized for 10 s in 3 volumes of buffer, pH 7.3 (0.25 sucrose-10 mM EDTA-50 mM potassium phosphate) using a Brinkman Polytron at low speed. The colonic and small intestinal mucosal scrapings were immediately placed into 3 volumes of the same buffer and homogenized similarly. The homogenates were centrifuged in a Sorvall RC-2B centrifuge at 10,000×g, 4° C., for 20 min. The supernatant was centrifuged in a Beckman Ultracentrifuge at 100,000×g, 4° C., for 1 h. The resulting cytosol fraction was used for determination of glutathione peroxidase activity and protein.
Glutathione peroxidase activity was determined spectrophotometrically according to a modification of the enzyme-coupled assay procedure of Paglia and Valentine. The reaction mixture consisted of 50 mM potassium phosphate buffer (pH 7.0), 1 mM EDTA, 0.2 mM NADPH, 1 enzyme unit/ml oxidized glutathione-reductase, 1 mM glutathione, and 1.5 mM cumene hydroperoxide in a total volume of 1 ml. The cytosol was added to the above mixture and allowed to incubate 5 min. at room temperature. Total glutathione peroxide was measured with cumene hydroperoxide as a substrate. Selenium-dependent glutathione peroxide was measured with tert-butyl hydroperoxide. The reaction was started with the addition of substrate solution. Absorbance was measured at 340 nm, and activity was measured from the slope of the lines as mol NADPH oxidized/min/mg protein. Blank reactions without cytosol were run simultaneously. Protein concentration in the cytosol fraction was measured by the method of Lowry et al. with bovine serum albumin as standard.
(§2) Statistical Analysis. The data on tumor incidence were analyzed statistically by the x^2 method and Fischer's exact probability test, and tumor multiplicity was analyzed by Student's t test. Biochemical results were analyzed by Student's t test.

[2] = tested on: azoxymethane-induced ear duct tumors; assay: AOM-induced ear duct tumor incidence; format: in vivo, male F344 rats; details: 25 ppm in diet
Excerpt: (§3) Experimental Procedure. Male F344 rats received at weaning were quarantined for 10 days and given access to AIN-76A semipurified diet (control diet). They were then be randomly allocated by weight to one of three dietary groups (control diet and 25 ppm BSC and 25 ppm benzylthiocyanate ("BTC") diets). […] Therefore one of our goals was to compare BSC with its sulfur analog BTC. Each dietary group was divided into AOM-treated (27 animals per subgroup) and vehicle-treated (12 animals per subgroup) subgroups and housed in plastic cages with filter tops in the animal holding room under controlled environmental conditions.
(§4) Beginning at 5 wk of age, groups of rats fed the control diet were transferred to diets containing 25 ppm BSC or 25 ppm BTC. At 7 wk of age, the animals in each group, except the vehicle-treated controls, received two weekly s.c. injections of AOM at a dose level of 15 mg/kg body weight/wk. Vehicle controls were treated with an equal volume of normal saline. One wk after AOM or saline treatment, animals receiving the BSC and BTC diets were transferred to the control diets and continued on this diet until the termination of the experiment. The 1-wk delay before transferring to control diet was to ensure complete metabolism and excretion of the carcinogen. The animals receiving the control diet continued on the same diet. The experiment was terminated 34 wk after the last AOM injection.
Both AOM-and vehicle-treated animals were sacrificed by CO2 euthanasia. Following laparotomy, the entire stomach, small intestine, and large intestine were resected and opened longitudinally, and the contents flushed with normal saline. The location, number, and size of the colon and small intestinal tumors were noted grossly under the dissection microscope. All other organs, including liver and kidneys, were also examined grossly for tumors. […]
as §2

[3] = General toxicity observation in rats fed the diets; format: in vivo, male F344 rats; details: 25 ppm in diet
Excerpt: as §3, §4, §1

[4] = Body weights of male F344 rats fed the experimental diets; format: in vivo; details: for Body wt, Initial (Wk 0) / Body wt, wk 4 / Body wt, wk 8 / Body wt, wk 16 / Body wt, wk 22 / Body wt, wk 30 / Body wt, wk 37 (at termination): 25 ppm in diet, Mean ± SD
Excerpt: as §3, §4, §1

[5] = tested on: carcinogenesis induced by chemicals; details: experimental animals; cited from earlier work
[6] = tested on: non-selenium-dependent glutathione peroxidase; assay: Non-selenium-dependent glutathione peroxidase activity in tissues of rats fed the diets; format: in vivo, male F344 rats; details: among the dietary groups
Protocol: as §1
Biochemical Determination. For the determination of tissue and blood plasma glutathione peroxidase activity, 6 vehicle-treated animals from each dietary group, while the animals were on experimental and control diets, were used. Before sacrificing the animals, blood was obtained under ether anesthesia by cardiac puncture with a syringe. They were then decapitated,and liver, kidneys, small intestine, and colon were rapidly removed. The liver was perfused with ice-cold normal saline. […]
Glutathione peroxidase activity was determined spectrophotometrically according to a modification of the enzyme-coupled assay procedure of Paglia and Valentine. […] Total glutathione peroxide was measured with cumene hydroperoxide as a substrate. Selenium-dependent glutathione peroxide was measured with tert-butyl hydroperoxide. […] Absorbance was measured at 340 nm, and activity was measured from the slope of the lines as mol NADPH oxidized/min/mg protein. […] Protein concentration in the cytosol fraction was measured by the method of Lowry et al. with bovine serum albumin as standard.

[7] = tested on: azoxymethane-induced metastasis; assay: AOM-induced metastasis; format: in vivo, male F344 rats
Excerpt: as §3, §4
(§5) Both AOM-and vehicle-treated animals were sacrificed by CO2 euthanasia. Following laparotomy, the entire stomach, small intestine, and large intestine were resected and opened longitudinally, and the contents flushed with normal saline. The location, number, and size of the colon and small intestinal tumors were noted grossly under the dissection microscope. All other organs, including liver and kidneys, were also examined grossly for tumors. Tissues were fixed in 10% buffered formalin, embedded in paraffin blocks, and processed by routine histological methods with the use of eosin and hematoxylin stains.

[8] = tested on: azoxymethane-induced small intestinal tumors; assay: AOM-induced small intestinal tumor incidence and multiplicity; format: in vivo, male F344 rats
Excerpt: as §3, §4, §5, §2
(§6) Using the above-identified procedures, a study was made of the effect of feeding benzylselenocyanate and its sulfur analogue, benzylthiocyanate, two (2) weeks before, during and until one (1) week after carcinogen administration (initiation phase) on intestinal carcinogenesis induced by azoxymethane (CAS: 25843-45-2) in male F344 rats.

[9] = tested on: azoxymethane-induced colon tumors; assay: AOM-induced colon tumor incidence and multiplicity (initiation phase feeding); format: in vivo, male F344 rats
Excerpt: as §3, §4, §5, §2, §6

[10] = cited from earlier work
[11] = 25 ppm in diet 5 wk, Mean ± SE (n = 6)
[12] = 25 ppm in diet 2 wk before to 1 wk after AOM
[13] = 25 ppm in diet, 27 (BSC) or 26 (BTC) animals/group

N#CSCc1ccccc1 [BTC, benzylthiocyanate, reference compound]
Selenium-dependent glutathione peroxidase activity, Kidney [1, 11]: 0.64 0.30 μmol NADPH oxidized/min/mg protein | Selenium-dependent glutathione peroxidase activity, Liver [1, 11]: 1.90 0.66 μmol NADPH oxidized/min/mg protein | Selenium-dependent glutathione peroxidase activity, Plasma [1, 11]: 0.69 0.16 μmol NADPH oxidized/min/mg protein | Selenium-dependent glutathione peroxidase activity, Colon ([1]; 25 ppm in diet 5 wk, colonic mucosa, Mean ± SE (n = 6)): 0.23 0.06 μmol NADPH oxidized/min/mg protein | Selenium-dependent glutathione peroxidase activity, Small intestine ([1]; 25 ppm in diet 5 wk, small intestinal mucosa, Mean ± SE (n = 6)): 0.20 0.10 μmol NADPH oxidized/min/mg protein | Selenium-dependent glutathione peroxidase activity (in words) ([1]; liver and plasma): not affected | Number of animals with ear duct tumors ([2]; 27 (BSC) or 26 (BTC) animals/group): 5 animals | % of animals with ear duct tumors ([2]; AOM treated): 19 % of animals | Death after AOM treatment ([3]; 2 wk after AOM treatment): One | Evidence of toxicity in animals fed the diet [3]: no evidence of toxicity | Body weights of animals fed experimental vs control diets ([4]; AOM or vehicle treated, in words): comparable | Body wt, Initial (Wk 0) ([4]; AOM treated): 40 ± 3 g | Body wt, wk 4 ([4]; AOM treated): 180 ± 10 g | Body wt, wk 8 ([4]; AOM treated): 281 ± 18 g | Body wt, wk 16 ([4]; AOM treated): 356 ± 21 g | Body wt, wk 22 ([4]; AOM treated): 394 ± 22 g | Body wt, wk 30 ([4]; AOM treated): 432 ± 24 g | Body wt, wk 37 (at termination) ([4]; AOM treated): 459 ± 19 g | Body wt, Initial (Wk 0) ([4]; Vehicle treated): 40 ± 3 g | Body wt, wk 4 ([4]; Vehicle treated): 182 ± 10 g | Body wt, wk 8 ([4]; Vehicle treated): 286 ± 18 g | Body wt, wk 16 ([4]; Vehicle treated): 362 ± 21 g | Body wt, wk 22 ([4]; Vehicle treated): 406 ± 22 g | Body wt, wk 30 ([4]; Vehicle treated): 449 ± 24 g | Body wt, wk 37 (at termination) ([4]; Vehicle treated): 470 ± 24 g | Inhibition of chemically induced carcinogenesis [5]: inhibitor of carcinogenesis induced by chemicals in experimental animals | Non-selenium-dependent glutathione peroxidase activity (in words) [6]: no differences in the activity of non-selenium-dependent glutathione peroxidase activity among the dietary groups | No. of animals with metastasis ([7]; 25 ppm in diet, AOM treated): 0 No. of animals | AOM-induced metastasis (in words) ([7]; several organs): none of the animals in BSC and BTC diet groups developed metastasis | Small intestinal tumor incidence, Adenocarcinoma [8, 12]: 38 % of animals with tumors | Small intestinal tumor incidence, Adenoma [8, 12]: 12 % of animals with tumors | Small intestinal tumor incidence, Total [8, 12]: 38 % of animals with tumors | Number of animals with small intestinal tumors, Adenocarcinoma [8, 13]: 10 number of animals | Number of animals with small intestinal tumors, Adenoma [8, 13]: 3 number of animals | Number of animals with small intestinal tumors, Total [8, 13]: 10 number of animals | Small intestinal tumor multiplicity, Adenocarcinoma ([8]; 25 ppm in diet, Mean ± SD): 0.34 0.6 no. of tumors/animal | Small intestinal tumor multiplicity, Adenoma ([8]; 25 ppm in diet, Mean ± SD): 0.12 0.3 no. of tumors/animal | Small intestinal tumor multiplicity, Total ([8]; 25 ppm in diet, Mean ± SD): 0.46 0.6 no. of tumors/animal | Colon tumor incidence, Adenocarcinoma [9, 12]: 31 % of animals with tumors | Colon tumor incidence, Adenoma [9, 12]: 62 % of animals with tumors | Colon tumor incidence, Total (adenomas plus adenocarcinomas) [9, 12]: 69 % of animals with tumors | Number of animals with colon tumors, Adenocarcinoma [9, 13]: 8 number of animals | Number of animals with colon tumors, Adenoma [9, 13]: 16 number of animals | Number of animals with colon tumors, Total [9, 13]: 18 number of animals | Colon tumor multiplicity, Adenocarcinoma ([9]; 25 ppm in diet, Mean ± SD): 0.35 ± 0.4 no. of tumors/animals | Colon tumor multiplicity, Adenoma ([9]; 25 ppm in diet, Mean ± SD): 1.27 ± 1.3 no. of tumors/animals | Colon tumor multiplicity, Total ([9]; 25 ppm in diet, Mean ± SD): 1.62 ± 1.3 no. of tumors/animals | Number of tumors per group, colon Adenocarcinoma ([9]; 25 ppm in diet, in parentheses): 9 number of tumors per group | Incidence of total colon tumors (in words) ([9]; vs control diet): no differences in colon tumor incidences between the animals fed the control diet and BTC diet

[Se] [selenium]
Reproductive and teratogenic effects ([10]; animals and humans): Toxic reproductive and teratogenic effects | Toxic chronic feeding level ([10]; chronic feeding, animals): 5 to 10 ppm
